Experiments:
MAP2K1 = MAP2K1 (Homo sapiens, UniProt Q02750); test: Radiometric kinase assay; format: biochemical; conditions: read-out: Kinase inhibition (%) MAP2K1
PIK3CA = PIK3CA (Homo sapiens, UniProt P42336); test: Radiometric kinase assay; format: biochemical; conditions: read-out: Kinase inhibition (%) PIK3CA
AKT2 = AKT2 (Homo sapiens, UniProt P31751); test: Radiometric kinase assay; format: biochemical; conditions: read-out: Kinase inhibition (%) AKT2
BRAF = BRAF (Homo sapiens, UniProt P15056); test: Radiometric kinase assay; format: biochemical; conditions: read-out: Kinase inhibition (%) BRAF
Sequence of BRAF (P15056 whole entry): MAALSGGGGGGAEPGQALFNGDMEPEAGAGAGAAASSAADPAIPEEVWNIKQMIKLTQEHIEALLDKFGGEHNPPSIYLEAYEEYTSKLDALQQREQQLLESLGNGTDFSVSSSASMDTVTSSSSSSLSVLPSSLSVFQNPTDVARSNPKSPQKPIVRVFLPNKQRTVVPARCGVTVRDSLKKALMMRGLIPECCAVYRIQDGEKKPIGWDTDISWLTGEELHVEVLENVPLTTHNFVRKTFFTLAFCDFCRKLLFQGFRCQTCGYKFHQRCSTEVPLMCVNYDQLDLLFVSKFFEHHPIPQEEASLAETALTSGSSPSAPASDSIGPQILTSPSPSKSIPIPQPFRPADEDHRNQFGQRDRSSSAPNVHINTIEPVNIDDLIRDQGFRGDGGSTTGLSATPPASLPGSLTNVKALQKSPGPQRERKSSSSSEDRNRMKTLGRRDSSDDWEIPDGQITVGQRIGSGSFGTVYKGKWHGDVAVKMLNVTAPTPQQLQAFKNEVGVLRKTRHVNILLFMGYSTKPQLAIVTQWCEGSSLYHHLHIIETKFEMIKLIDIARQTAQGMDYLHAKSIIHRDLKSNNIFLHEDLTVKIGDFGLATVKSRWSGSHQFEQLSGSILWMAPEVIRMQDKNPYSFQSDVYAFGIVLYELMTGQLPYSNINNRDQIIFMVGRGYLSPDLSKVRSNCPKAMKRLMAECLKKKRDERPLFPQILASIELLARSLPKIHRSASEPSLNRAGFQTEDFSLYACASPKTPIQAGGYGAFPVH

Mia-Paca-2 = test: MTT antiproliferative assay, Mia-Paca-2; format: cell-based, human; conditions: Homo sapiens, MIA PaCa-2, 72 h, read-out: IC50 Mia-Paca-2
AsPC-1 cells = test: Apoptosis by Hoechst 33,258 staining; format: cell-based, human; conditions: AsPC-1, 10 and 30 µM, 48 h
MET = MET (Homo sapiens, UniProt P08581); test: Radiometric kinase assay; format: biochemical; conditions: read-out: Kinase inhibition (%) MET
Sequence of MET (P08581 25-1390): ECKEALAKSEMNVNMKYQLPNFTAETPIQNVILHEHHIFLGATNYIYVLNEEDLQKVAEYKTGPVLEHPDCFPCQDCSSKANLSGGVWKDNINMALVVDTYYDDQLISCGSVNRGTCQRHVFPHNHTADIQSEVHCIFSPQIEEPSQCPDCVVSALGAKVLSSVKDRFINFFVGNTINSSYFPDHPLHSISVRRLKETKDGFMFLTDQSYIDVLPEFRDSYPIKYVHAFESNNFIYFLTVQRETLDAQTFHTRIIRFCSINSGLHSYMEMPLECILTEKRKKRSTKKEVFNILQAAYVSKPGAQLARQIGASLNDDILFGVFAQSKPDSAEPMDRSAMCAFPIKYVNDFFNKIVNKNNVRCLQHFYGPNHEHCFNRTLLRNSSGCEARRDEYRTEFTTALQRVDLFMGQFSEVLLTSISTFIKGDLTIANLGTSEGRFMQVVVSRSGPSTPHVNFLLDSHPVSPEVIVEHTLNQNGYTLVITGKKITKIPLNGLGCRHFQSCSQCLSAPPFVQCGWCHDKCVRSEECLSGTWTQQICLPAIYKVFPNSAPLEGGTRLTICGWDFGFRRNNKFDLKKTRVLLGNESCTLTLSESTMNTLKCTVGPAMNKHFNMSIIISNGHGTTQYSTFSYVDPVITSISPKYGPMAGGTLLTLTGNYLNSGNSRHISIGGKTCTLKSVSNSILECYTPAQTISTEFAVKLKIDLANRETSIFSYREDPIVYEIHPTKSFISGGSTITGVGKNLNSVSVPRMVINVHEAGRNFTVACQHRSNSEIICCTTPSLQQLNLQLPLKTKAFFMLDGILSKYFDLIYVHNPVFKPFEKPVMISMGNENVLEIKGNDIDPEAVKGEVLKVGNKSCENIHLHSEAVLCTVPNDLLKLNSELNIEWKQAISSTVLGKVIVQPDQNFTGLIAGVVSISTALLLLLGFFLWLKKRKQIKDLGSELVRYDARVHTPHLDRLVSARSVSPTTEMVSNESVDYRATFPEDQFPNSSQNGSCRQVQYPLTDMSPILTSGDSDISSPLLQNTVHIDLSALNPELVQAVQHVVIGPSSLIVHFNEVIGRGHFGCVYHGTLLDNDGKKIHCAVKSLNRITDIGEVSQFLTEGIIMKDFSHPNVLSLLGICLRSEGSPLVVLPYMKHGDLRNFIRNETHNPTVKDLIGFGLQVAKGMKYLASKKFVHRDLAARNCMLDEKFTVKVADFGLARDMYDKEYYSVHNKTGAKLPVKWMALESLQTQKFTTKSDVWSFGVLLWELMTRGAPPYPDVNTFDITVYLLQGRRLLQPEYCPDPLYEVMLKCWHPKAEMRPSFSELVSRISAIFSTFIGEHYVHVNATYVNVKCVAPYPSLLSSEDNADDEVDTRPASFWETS

ABL1 = ABL1 (Homo sapiens, UniProt P00519); test: Radiometric kinase assay; format: biochemical; conditions: read-out: Kinase inhibition (%) ABL1
MCF-7 = test: MTT antiproliferative assay, MCF-7; format: cell-based, human; conditions: Homo sapiens, MCF7, 72 h, read-out: IC50 MCF-7
[1] = system: EBC-1, AsPC-1, Mia-Paca-2, HT-29, MCF-7 cancer cells; test: MTT antiproliferative assay, cancer cell lines summarised; format: cell-based, human; conditions: Homo sapiens, read-out: IC50 range against tested cell lines
AKT1 = AKT1 (Homo sapiens, UniProt P31749); test: Radiometric kinase assay; format: biochemical; conditions: read-out: Kinase inhibition (%) AKT1
Sequence of AKT1 (P31749 whole entry): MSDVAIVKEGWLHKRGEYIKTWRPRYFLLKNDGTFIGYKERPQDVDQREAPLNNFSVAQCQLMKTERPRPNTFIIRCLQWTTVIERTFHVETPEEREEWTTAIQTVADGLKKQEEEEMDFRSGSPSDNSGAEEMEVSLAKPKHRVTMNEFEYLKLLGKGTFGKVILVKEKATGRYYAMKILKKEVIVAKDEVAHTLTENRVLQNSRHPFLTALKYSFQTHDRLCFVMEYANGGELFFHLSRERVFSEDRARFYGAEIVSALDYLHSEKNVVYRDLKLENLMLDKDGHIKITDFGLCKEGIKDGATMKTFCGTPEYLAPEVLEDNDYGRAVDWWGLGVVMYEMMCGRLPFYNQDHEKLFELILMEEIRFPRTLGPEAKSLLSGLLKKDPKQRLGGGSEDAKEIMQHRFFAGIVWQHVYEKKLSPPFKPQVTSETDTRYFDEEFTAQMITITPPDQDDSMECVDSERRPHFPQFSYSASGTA

IGF1R = IGF1R (Homo sapiens, UniProt P08069); test: Radiometric kinase assay; format: biochemical; conditions: read-out: Kinase inhibition (%) IGF1R
Sequence of IGF1R (P08069 31-1367): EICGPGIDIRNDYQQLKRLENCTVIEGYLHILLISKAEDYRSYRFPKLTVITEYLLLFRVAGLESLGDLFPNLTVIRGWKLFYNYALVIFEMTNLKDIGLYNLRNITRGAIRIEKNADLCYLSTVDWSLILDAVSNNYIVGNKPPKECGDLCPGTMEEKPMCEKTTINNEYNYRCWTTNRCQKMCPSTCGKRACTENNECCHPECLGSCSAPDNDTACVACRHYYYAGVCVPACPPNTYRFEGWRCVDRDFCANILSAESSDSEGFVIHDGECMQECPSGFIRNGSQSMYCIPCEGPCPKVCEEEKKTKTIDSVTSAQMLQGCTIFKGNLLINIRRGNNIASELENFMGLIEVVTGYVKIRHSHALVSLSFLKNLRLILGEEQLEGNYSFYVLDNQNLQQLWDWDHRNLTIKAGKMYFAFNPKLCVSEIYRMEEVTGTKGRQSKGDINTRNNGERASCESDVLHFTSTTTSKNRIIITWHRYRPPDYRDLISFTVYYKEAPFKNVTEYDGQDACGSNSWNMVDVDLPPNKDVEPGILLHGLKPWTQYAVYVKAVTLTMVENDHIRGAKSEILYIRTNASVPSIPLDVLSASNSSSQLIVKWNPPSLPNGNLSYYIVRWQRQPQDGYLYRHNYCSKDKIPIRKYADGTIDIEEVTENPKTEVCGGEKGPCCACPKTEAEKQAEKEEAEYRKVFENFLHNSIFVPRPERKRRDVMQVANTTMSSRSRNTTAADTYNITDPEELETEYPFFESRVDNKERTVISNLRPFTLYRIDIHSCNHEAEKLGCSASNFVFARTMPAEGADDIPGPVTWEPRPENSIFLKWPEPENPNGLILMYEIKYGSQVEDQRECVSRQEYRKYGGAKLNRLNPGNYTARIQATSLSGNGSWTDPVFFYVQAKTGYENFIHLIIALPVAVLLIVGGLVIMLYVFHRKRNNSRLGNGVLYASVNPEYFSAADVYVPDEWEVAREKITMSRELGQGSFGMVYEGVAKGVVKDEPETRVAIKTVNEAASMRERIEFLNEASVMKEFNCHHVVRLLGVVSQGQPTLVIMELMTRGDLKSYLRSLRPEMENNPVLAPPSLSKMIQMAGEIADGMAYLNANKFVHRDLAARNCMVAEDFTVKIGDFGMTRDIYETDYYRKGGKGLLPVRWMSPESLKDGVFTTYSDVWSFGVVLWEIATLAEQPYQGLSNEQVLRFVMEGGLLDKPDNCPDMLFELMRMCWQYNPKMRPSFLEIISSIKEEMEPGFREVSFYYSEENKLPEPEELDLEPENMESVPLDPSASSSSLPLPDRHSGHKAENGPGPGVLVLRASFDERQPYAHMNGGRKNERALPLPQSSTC

Sequence of MAP2K1 (Q02750 whole entry): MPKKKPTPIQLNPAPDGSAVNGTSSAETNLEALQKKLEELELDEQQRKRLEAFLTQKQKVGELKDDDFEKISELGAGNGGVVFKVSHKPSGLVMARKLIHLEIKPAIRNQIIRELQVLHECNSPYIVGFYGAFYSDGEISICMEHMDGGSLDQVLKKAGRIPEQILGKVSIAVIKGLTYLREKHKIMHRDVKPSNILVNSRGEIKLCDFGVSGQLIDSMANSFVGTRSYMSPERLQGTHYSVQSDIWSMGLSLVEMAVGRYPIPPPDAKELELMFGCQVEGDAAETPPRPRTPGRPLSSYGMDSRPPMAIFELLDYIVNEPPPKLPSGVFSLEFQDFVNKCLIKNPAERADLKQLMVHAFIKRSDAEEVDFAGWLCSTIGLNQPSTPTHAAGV
Sequence of AKT2 (P31751 whole entry): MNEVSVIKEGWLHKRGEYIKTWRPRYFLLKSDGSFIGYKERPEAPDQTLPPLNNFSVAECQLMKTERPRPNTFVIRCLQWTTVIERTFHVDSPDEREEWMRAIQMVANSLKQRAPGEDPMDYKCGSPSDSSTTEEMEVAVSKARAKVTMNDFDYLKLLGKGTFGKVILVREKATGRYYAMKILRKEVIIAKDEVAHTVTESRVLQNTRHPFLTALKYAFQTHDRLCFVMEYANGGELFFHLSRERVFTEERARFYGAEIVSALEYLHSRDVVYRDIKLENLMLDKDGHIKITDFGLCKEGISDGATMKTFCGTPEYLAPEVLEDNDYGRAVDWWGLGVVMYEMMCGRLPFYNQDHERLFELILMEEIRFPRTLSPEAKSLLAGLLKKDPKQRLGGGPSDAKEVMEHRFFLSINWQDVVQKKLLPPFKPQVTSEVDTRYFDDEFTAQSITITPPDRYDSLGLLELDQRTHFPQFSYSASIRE

- inhibition at 10 µM (MAP2K1): 4%
- inhibition at 10 µM (PIK3CA): 3%
- inhibition at 10 µM (AKT2): -7%
- inhibition at 10 µM (BRAF): -7%
- IC50 (Mia-Paca-2): 0.8 ± 0.1 µM
- inhibition at 10 µM (MET): -14%
- inhibition at 10 µM (ABL1): 13%
- IC50 (MCF-7): 7.1 ± 4.3 µM
- IC50 [1]: 0.3 to 7.1 µM
- inhibition at 10 µM (AKT1): 15%
- inhibition at 10 µM (IGF1R): -11%
SMILES: O=C1C=C(Nc2ccc(OCc3cn(Cc4ccc(Cl)c(Cl)c4)nn3)cc2)C(=O)c2ccccc21 [Compound 4e, 2-((4-((1-(3,4-Dichlorobenzyl)−1H-1,2,3-triazol-4-yl)methoxy)phenyl)amino) naphthalene-1,4-dione]
- Apoptosis induction (nuclear morphology) (AsPC-1 cells): characteristic features of apoptosis including densely packed chromatin within the nucleus as well as nuclear fragmentation

From publication PMC11850817 (Scientific Reports, 2025)
